Assay results taken from PMC10216478, “Development of a Non-Peptide Angiotensin II Type 1 Receptor Ligand by Structural Modification of Olmesartan as a Biased Agonist” (Biomedicines, 2023).
Positions count from the first letter of the chain named.

How the values were obtained:
AT1 Q257A receptor = molecular target: T1, AT1 Q257A receptor (Rattus norvegicus, UniProt P25095, Q257A); assay: IP production assay in COS7 cells expressing AT1-Q257A receptor; type: cell-based; details: 1 µM ligands or 0.1 µM Ang II, 30 min, n = 5, vs. (-)
T1 construct: expressed in transfected cells; host or cells: COS7
T1 sequence (P25095 1-359 Q257A): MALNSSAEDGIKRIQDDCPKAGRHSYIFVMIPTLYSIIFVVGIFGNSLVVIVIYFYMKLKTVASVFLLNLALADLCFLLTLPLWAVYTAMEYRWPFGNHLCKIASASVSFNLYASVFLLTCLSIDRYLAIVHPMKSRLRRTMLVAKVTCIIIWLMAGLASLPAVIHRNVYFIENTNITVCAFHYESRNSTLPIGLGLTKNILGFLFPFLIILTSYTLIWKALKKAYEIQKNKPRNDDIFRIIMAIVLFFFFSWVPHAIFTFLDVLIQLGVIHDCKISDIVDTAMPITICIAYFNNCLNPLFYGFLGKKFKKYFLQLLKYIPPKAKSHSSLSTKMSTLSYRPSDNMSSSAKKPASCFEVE
Protocol: (§1) The synthetic rat AT1 receptor gene, which was cloned in the shuttle expression vector pMT-2, was used for expression and mutagenesis, as described previously. […] In the experiments, cells were grown without a cell-growth supplement. To express the AT1 receptor protein, 10 µg of purified plasmid DNA per 10^7 cells was used in the transfection. Wild-type and mutated AT1 receptors were transiently transfected into cells using Lipofectamine 2000 liposomal reagent (Roche Applied Science, Penzberg, Germany). Cells were plated and grown and were 70–90% confluent at the time of transfection. We incubated plasmid DNA (10 µg)–lipid (10 µL) complexes for 5 min at room temperature and added and incubated the complexes with cells for 24 h. We then analyzed the parameters in transfected cells. […] Transfected cells that had been cultured for 48–72 h were harvested. Cell membranes were prepared using the nitrogen Parr bomb disruption or freeze–thaw methods.
Ligand (such as agonist or antagonist)-induced IP production through the AT1 receptor in transfected COS7 cells transiently expressing the AT1 receptor was measured to evaluate cell signaling as a second messenger for controlling blood pressure, since the increases in the intracellular Ca^2+ concentration were the result of IP accumulation, which indicated vasoconstriction. As a surrogate model with higher levels of AT1 receptor expression, COS7 cells are suitable for IP measurement because it is easy to detect differences in IP production. Cells were labeled for 24 h with [^3H]-myoinositol at 37 °C in DMEM containing 10% FBS. Next, the cells were washed with buffer 3 times and incubated with a medium containing 10 mM LiCl for 20 min; 0.1 µM Ang II or 1 µM ligands were added and incubation was continued for another 30 min at 37 °C. After incubation, the medium was removed, and total soluble IP was extracted from the cells using the perchloric acid extraction method, as described previously. Cells were plated at a field density of 5 × 10^3 cells/cm^2 in 60 mm dishes and cultured in a fresh growth medium at 37 °C in a DMEM 5% CO2 incubator. […] The culture medium was changed 48 h after transfection and 1.5 mL of 1 μCi/mL of [^3H]-myoinositol was added to each 60-mm dish at 37 °C in DMEM containing 10% FBS. After labeling, the cells were washed with buffer 3 times and incubated with a medium containing 10 mM LiCl for 20 min. The indicated concentration of ligands was added and incubation was continued for an additional 30 min at 37 °C. After incubation, the medium was removed, and total soluble IP was extracted from the cells using the perchloric acid extraction method. Total IP production was expressed as the sum of radioactivity, as described previously.

AT1 L112A receptor = molecular target: T2, AT1 L112A receptor (Rattus norvegicus, UniProt P25095, L112A); assay: Immunoblotting of ERK 1/2 activation in COS7 cells overexpressing AT1-L112A receptor; type: cell-based; details: 1 µM ligands or 0.1 µM Ang II, 10 min, n = 5, vs. (-)
T2 construct: expressed in transfected cells; host or cells: COS7
T2 sequence (P25095 1-359 L112A): T1 sequence (P25095 1-359 Q257A) with L112A, A257Q
Protocol: as §1
In in vitro studies, ERK 1/2 activation by 1 µM ligands or 0.1 µM Ang II incubated for 10 min was measured using COS7 cells that overexpressed AT1 wild-type and mutant receptors. ERK activity was measured in cells maintained for 18 h in DMEM containing 0.1% serum. At the end of the stimulation, the culture medium was removed by aspiration, the cells were washed with ice-cold phosphate-buffered saline, and the dishes were frozen in liquid nitrogen. The cells were scraped using a scraper after melting, and the scraped cells were transferred to a tube. We homogenized the cells in lysis buffer plus protease inhibitors and determined the protein concentration using the bicinchoninic acid method. […] We fractionated total proteins using sodium dodecyl sulfate polyacrylamide gel electrophoresis; we then transferred the proteins to a Hybond nitrocellulose membrane and blocked the blotted membranes with 10% bovine serum albumin in tris-buffered saline buffer (50 mM Tris–HCl pH 7.6, 150 mM NaCl) for 1 h at room temperature. […] An enhanced chemiluminescent substrate system (Amersham, Buckinghamshire, UK) was used. The signal was independently quantified by digital image analysis (ImageJ, National Institutes of Health, Bethesda, MD, USA).

SMILES | Effect on IP production (AT1 Q257A receptor) | ERK1/2 activation (AT1 L112A receptor)
CCCc1nc(C(C)(C)O)c(C(=O)O)n1Cc1ccc(-c2ccccc2-c2nnn[nH]2)cc1 [Olmesartan, olmesartan] | significant reduction in basal IP production levels | did not change ERK1/2 activation
CCCc1nc(C(C)(C)O)c(C(N)=O)n1Cc1ccc(-c2ccccc2-c2nnn[nH]2)cc1 [R239470] | none of the compounds (R239470, R781253, and R794847) affected IP production | but not R239470, activated ERK1/2
CCCc1nc(C(C)(C)O)c(C(=O)O)n1Cc1ccc(-c2cc(Cc3ccc(O)cc3)ccc2-c2nnn[nH]2)cc1 [R781253] | none of the compounds (R239470, R781253, and R794847) affected IP production | activated ERK1/2
CCCc1nc(C(C)(C)O)c(C(N)=O)n1Cc1ccc(-c2cc(Cc3ccc(O)cc3)ccc2-c2nnn[nH]2)cc1 [R794847] | none of the compounds (R239470, R781253, and R794847) affected IP production | activated ERK1/2
